{"source": "patent US20140093903A1", "about": "“METHODS FOR DIAGNOSIS, PROGNOSIS AND METHODS OF TREATMENT” (Nodality, Inc., priority 2012, published 2014)", "key": {"[1]": {"tested_on": "CLL cells", "conditions": "inhibition of AKT phosphorylation by the PI3K inhibitor; cited from earlier work"}, "[2]": {"tested_on": "CLL B cells", "assay": "SCNP phospho-flow: H2O2-modulated BCR signaling, CLL samples", "assay_type": "cell-based, human", "conditions": "after exposure to H2O2", "description": "Cryopreserved PBMCs, 23 from CLL patients and 7 from healthy donors, were rapidly thawed in a 37° C. water bath. 1 mL of pre-warmed thawing media (PBS 1% FBS, 2 mM EDTA) was added dropwise to each of the cryovials. […] Supernatant was decanted, cell pellets were resuspended in 1 mL RPMI 1640 1% FCS and filtered over 70 um nylon mesh (BD Falcon) to remove cell clumps and debris. 11 mL of additional RPMI 1640 1% FCS was added to the samples to wash. A 20 uL aliquot was removed from each sample and placed into a solution of PBS 4% FCS CD45 Alexa Flour 700 and Propidium Iodide for viability and counting on a BDLSRII cytometer.\nAt the end of the 10 minute incubation […] 5.6% PFA (final 1.6%) was added to each well to fix the cells.\nAt the end of the 10 minute incubation 200 uL 5.6% PFA (final 1.6%) was added to each well to fix the cells.\nCells were permeabilized by adding 600 µL of ice cold 100% methanol to each well using the Costar 96-channel pipettor (Costar). […]\nTo test whether phenotypic characterization of CLL physiology could be discerned based on responses of cells to extracellular stimuli, modulated BCR intracellular signaling was determined either in response to anti-μ (ligand-dependent) or post H2O2 treatment to evaluate the contribution of tonic signaling (ligand-independent) to BCR output. […]"}, "[3]": {"tested_on": "healthy B cells", "description": "Cryopreserved PBMCs, 23 from CLL patients and 7 from healthy donors, were rapidly thawed in a 37° C. water bath. 1 mL of pre-warmed thawing media (PBS 1% FBS, 2 mM EDTA) was added dropwise to each of the cryovials. Thawed cells were transferred to a tube containing 8 mL thawing media. Tubes were inverted and centrifuged at 200×g for 8 minutes at room temperature. Supernatant was decanted, cell pellets were resuspended in 1 mL RPMI 1640 1% FCS and filtered over 70 um nylon mesh (BD Falcon) to remove cell clumps and debris. 11 mL of additional RPMI 1640 1% FCS was added to the samples to wash. A 20 uL aliquot was removed from each sample and placed into a solution of PBS 4% FCS CD45 Alexa Flour 700 and Propidium Iodide for viability and counting on a BDLSRII cytometer. The remaining volume of cell suspension was centrifuged at 200×g for 8 minutes at room temperature\nFor single agent modulators 150 μL of 10× solutions were arrayed into wells of a 96-well v-bottom plate (Nunc). Corresponding daughter plates were taken from the 37° C. incubator, and […] of RPMI1640 1% FCS was added to each well using the Liquidator 96-well pipettor. […] The daughter plates were pulse vortexed for 5 seconds and placed into a 37° C. water bath for 10 minutes.\nCorresponding daughter plates were taken from the 37° C. incubator. […]\nAntibody cocktails for signaling and apoptosis readouts were prepared in FACS Buffer. […]"}, "[4]": {"tested_on": "CLL cells", "conditions": "in vitro treatment; Buchner 2009, Gobessi 2009; cited from earlier work"}, "[5]": {"tested_on": "CD19+CD5+ CLL cells", "assay": "SCNP drug-induced signaling, Example 2 (4 and 24 hours)", "assay_type": "cell-based, human", "procedure": "Peripheral blood mononuclear cells (PBMCs) were obtained from 29 patients with CLL treated on a clinical trial at “La Sapienza” University of Rome between November 2008 and January 2010 at the time of but prior to the initiation of first treatment. All patients provided informed consent for research purposes. SCNP assays were performed blinded to clinical outcomes. […] SCNP analysis was performed to quantitatively measure 18 intracellular signaling proteins within CD19+CD5+ CLL cells using a panel of 14 disease-relevant modulators (FIG. 27) as follows:\nSCNP analysis was performed to quantitatively measure intracellular signaling proteins within CD19+CD5+ CLL cells using a panel of disease-relevant modulators. First, the cryopreserved PBMC samples were thawed at 37° C., stained for viability with Amine Aqua (Invitrogen, Carlsbad, Calif.), resuspended in RPMI with 10% FBS and aliquoted at 100,000 cells per well 96-deepwell plates. Cells were rested for 2 hours at 37° C. followed by modulation. Short duration modulation was performed for 10 minutes at 37° C. with the following modulators: 20 μg/mL polyclonal goat F(ab′)2 anti-human IgM (Southern Biotech, Birmingham, Ala.), 5 μg/mL monoclonal anti-human IgD (BD Biosciences, San Jose, Calif.), 10 ng/mL of SDF1□ (R&D Systems, Minneapolis, Minn.), and the combination of 20 μg/mL polyclonal goat F(ab′)2 anti-human IgM and 10 ng/mL of SDF1□□□15 minute modulations were performed for the following: 0.5 μg/mL CD40L (R&D Systems, Minneapolis, Minn.), 50 ng/mL IL-2 (R&D Systems, Minneapolis, Minn.), 50 ng/mL IL-4 (BD Biosciences, San Jose, Calif.), 50 ng/mL IL-21 (Peprotech, Rocky Hill, N.J.), 1000 IU/mL of IFN□ (PBL InterferonSource, Piscataway, N.J.), 5 μg/mL R848 (Invivogen, San Diego, Calif.), and 1 μM thapsigargin (EMD Millipore, Billerica, Mass.). […]"}, "[6]": {"tested_on": "CD19+CD5+ CLL cells", "assay": "SCNP modulated signaling, Example 2 (10-15 min modulation)", "assay_type": "cell-based, human", "conditions": "SDF1α 10 ng/mL", "description": "Peripheral blood mononuclear cells (PBMCs) were obtained from 29 patients with CLL treated on a clinical trial at “La Sapienza” University of Rome between November 2008 and January 2010 at the time of but prior to the initiation of first treatment. All patients provided informed consent for research purposes. SCNP assays were performed blinded to clinical outcomes. Diagnosis and initiation of treatment for B-CLL were based on 1996 National Cancer Institute-Working Group ([…] 2008 Guidelines for Diagnosis and Treatment of CLL. Clinical and biological disease characteristics at diagnosis are summarized in FIG. 28 IGHV mutational status and expression of CD38 and ZAP-70 were determined. […] SCNP analysis was performed to quantitatively measure intracellular signaling proteins within CD19+CD5+ CLL cells using a panel of disease-relevant modulators. […] Cells were rested for 2 hours at 37° C. followed by modulation. Short duration modulation was performed for 10 minutes at 37° C. with the following modulators: 20 μg/mL polyclonal goat F(ab')2 anti-human IgM (Southern Biotech, Birmingham, Ala.), 5 μg/mL monoclonal anti-human IgD (BD Biosciences, San Jose, Calif.), 10 ng/mL of SDF1[…] (R&D Systems, Minneapolis, Minn.), and the combination of 20 μg/mL polyclonal goat F(ab')2 anti-human IgM and 10 ng/mL of SDF1[…]15 minute modulations were performed for the following: 0.5 μg/mL CD40L (R&D Systems, Minneapolis, Minn.), 50 ng/mL IL-[…] […] The raw instrument fluorescence intensities were converted to calibrated intensity metrics (ERFs, Equivalent Number of Reference Fluorophores). […] The term “signaling node” is used to refer to a proteomic readout in the presence or absence of a specific modulator. For example, the response to anti-IgM modulation can be measured using p-ERK as a readout. […] The term “metric” is used to refer to the quantification method used to evaluate the functional response of signaling proteins. […]"}, "[7]": {"tested_on": "CD19+CD5+B-CLL cells", "assay": "SCNP modulated signaling, Example 3 (B-CLL vs healthy B cells)", "assay_type": "cell-based, human", "conditions": "CLL samples compared to healthy controls", "description": "Peripheral blood mononuclear cells (PBMCs) were obtained from 39 B-CLL patients between 2006 and 2007, Rai stage 0-II, at different time points during their clinical course but prior to the initiation of treatment. PBMCs from four age-matched healthy donors were collected at the Stanford Blood Center. All donors provided informed consent for research purposes. SCNP assays were performed blinded to clinical data. Diagnosis and initiation of treatment for B-CLL were based on 1996 National Cancer Institute-Working Group (NCI-WG)/IWCLL 2008 Guidelines for Diagnosis and Treatment of CLL. The median age of CLL patients was slightly lower than the typical CLL population (58 years vs 65-70). Of the 39 samples evaluated, 15 expressed CD38 (≧30% of cells) and 20 expressed ZAP-70 (≧20% of cells); 19 were IGHV unmutated (98% cutoff); and the cytogenetic risk groups were evenly represented. IGHV mutational status and expression of CD38 and ZAP-70 were determined. […]\nSCNP analysis quantitatively measured intracellular signaling proteins within CD19+CD5+B-CLL cells using a panel of disease-relevant modulators (FIG. 27, FIG. 35A, B). […]\nFlow cytometry data were gated using WinList (Verity House Software, Topsham, Me.). […] The raw instrument fluorescence intensities were converted to calibrated intensity metrics (ERFs, Equivalent Number of Reference Fluorophores). […]"}, "[8]": {"conditions": "24 hours, samples with low spontaneous apoptosis"}}}
{"molecule": "CC[C@H](Nc1ncnc2[nH]cnc12)c1nc2cccc(F)c2c(=O)n1-c1ccccc1", "note": "[CAL-101/GS-1101]", "values": [{"measurement": "CD40L protection from spontaneous apoptosis", "setting": "[1]", "result": "blocked"}]}
{"molecule": "OO", "note": "[H2O2, hydrogen peroxide]", "values": [{"measurement": "B cells with activated Syk and BLNK", "setting": "[2]; sample CLL007 (Group II)", "result": "approximately 2%"}, {"measurement": "B cells with activated Syk and BLNK", "setting": "[2]; sample CLL021 (Group II)", "result": "5-6%"}, {"measurement": "anti-μ-mediated BCR signaling in presence of H2O2", "setting": "[3]; B cells from healthy donors", "result": "further potentiated"}, {"measurement": "response of all signaling molecules except Akt to H2O2 treatment alone", "setting": "[3]; healthy B cells", "result": "minimally responsive"}]}
{"molecule": "COc1cc(Nc2ncc(F)c(Nc3ccc4c(n3)NC(=O)C(C)(C)O4)n2)cc(OC)c1OC", "note": "[R406]", "values": [{"measurement": "apoptotic response of CLL cells", "setting": "[4]", "result": "mediated an apoptotic response"}]}
{"molecule": "Cn1c(CCCC(=O)O)nc2cc(N(CCCl)CCCl)ccc21", "note": "[bendamustine]", "values": [{"measurement": "induced p-53BP1 signaling, bendamustine versus fludarabine", "setting": "[5]; [8]", "result": "greater"}, {"measurement": "induced p-H2AX signaling, bendamustine versus fludarabine", "setting": "[5]; [8]", "result": "equivalent"}, {"measurement": "p21 induction in response to bendamustine", "setting": "[5]; CLL samples with 17p deletion, 24 hour, additional cohort of 7 CLL samples", "result": "impaired p21 induction"}]}
{"molecule": "SDF1α", "values": [{"measurement": "SDF1α→p-AKT signal", "setting": "[6]; 10 min, moderate signal", "result": "≥ 0.25", "unit": "log 2Fold"}, {"measurement": "SDF1α→p-ERK signal", "setting": "[6]; 10 min, moderate signal", "result": "≥ 0.25", "unit": "log 2Fold"}, {"measurement": "p-ERK signal, median log 2Fold", "setting": "[6]; 10 min modulation, αIgM 20 μg/mL", "result": 0.38, "unit": "log 2Fold"}, {"measurement": "SDF1α→p-AKT modulation as a single stimulus", "setting": "[7]", "result": "weaker in nearly all CLL samples"}]}
